Drawing on US10118916B2, “Modulators of cystic fibrosis transmembrane conductance regulator protein” (AbbVie S.à.r.l., priority 2016, dated 2018), this text covers EC50 and Maximum % activity for ten compounds.

The experiment addresses T1, F508delCFTR (Homo sapiens, UniProt P13569, DEL508-508).
T1 construct: expressed in transfected cells; host or cells: CFBE41o- (human lung derived epithelial cell line), doxycycline-inducible
The experiment can be described thus: Cell Surface Expression-Horse Radish Peroxidase (CSE-HRP) assay. The class given is cell-based. Conditions: CFBE41o-F508delCFTR-HRP cells; for EC50: F508delCFTR cell surface expression, luminescence, 18-24 hours at 33° C., highest concentration 20 μM; for Maximum % activity: maximum at any tested concentration, normalized to on-plate positive control (3 μM). The text has this: Cell Surface Expression-Horse Radish Peroxidase (CSE-HRP) Assay:
A cellular assay for measuring the F508delCFTR cell surface expression after correction with test compounds was developed in human lung derived epithelial cell line (CFBE41o-) (Veit G et al, (2012) Mol Biol Cell. 23(21): 4188-4202). This was achieved by expressing the F508delCFTR mutation along with a horseradish peroxidase (HRP) in the fourth exofacial loop and then measuring the HRP activity using luminescence readout from these cells, CFBE41o-F508delCFTR-HRP, that were incubated overnight with the test corrector compounds. Briefly, for this primary assay, the CFBE41o-F508delCFTR-HRP cells were plated in 384-well plates (Greiner Bio-one; Cat 781080) at 4,000 cells/well along with 0.5 μg/mL doxycycline to induce the F508delCFTR-HRP expression and further incubated at 37° C., 5% CO2 for 72 hours. The test compounds were then added at the required concentrations and further incubated for 18-24 hours at 33° C. The highest concentration tested was 20 μM with an 8-point concentration response curve using a 3-fold dilution. Three replicate plates were run to determine one EC50. All plates contained negative controls (dimethyl sulfoxide, DMSO) and positive controls (3 μM of 3-[(2R,4R)-4-({[1-(2,2-difluoro-1,3-benzodioxol-5-yl)cyclopropyl]carbonyl}amino)-7-methoxy-3,4-dihydro-2H-chromen-2-yl]benzoic acid) as well as on-plate concentration response of the positive control. Post incubation, the plates were washed 5× times with Dulbecco's phosphate buffered saline (DPBS), followed by the addition of the HRP substrate, luminol (50 μL), and measuring the HRP activity using luminescence readout on EnVision® Multilabel Plate Reader (Perkin Elmer; product number 2104-0010). The raw counts from the experiment are analyzed using Accelrys® Assay Explorer v3.3.
Z′ greater than 0.5 was used as passing quality control criteria for the plates.
The Z′ is defined as: 1−[3*SDPositive Control+3*SDNegative Control/Absolute(MeanPositive Control−MeanNegative Control)] wherein “SD” is standard deviation.
The % activity measured at each of the 8 test concentrations of the test compound was normalized to the on-plate positive control using the following formula: % activity=[(test compound response−DMSO response)/(positive control response−DMSO response)]*100
The maximum % activity achieved for the test compound at any tested concentration is presented in Table 1 along with the EC50 calculated using the following general sigmoidal curve with variable Hill slope equation (described as Model 42 in the Accelrys® Assay Explorer v3.3 software): y=(a−d)/(1+(x/c)^b)+d
General sigmoidal curve with concentration, response, top, bottom, EC50 and Hill slope.
This model describes a sigmoidal curve with an adjustable baseline, a. The equation can be used to fit curves where response is either increasing or decreasing with respect to the independent variable, “x”. • “x” is a concentration of drug under test. • “y” is the response. • “a” is the maximum response, and “d” is the minimum response • “c” is the inflection point (EC50) for the curve. That is, “y” is halfway between the lower and upper asymptotes when x=c. • “b” is the slope-factor or Hill coefficient. The sign of b is positive when the response increases with increasing dose and is negative when the response decreases with increasing dose (inhibition).

T1 sequence (P13569 with tags, fused parts or gaps DEL508-508): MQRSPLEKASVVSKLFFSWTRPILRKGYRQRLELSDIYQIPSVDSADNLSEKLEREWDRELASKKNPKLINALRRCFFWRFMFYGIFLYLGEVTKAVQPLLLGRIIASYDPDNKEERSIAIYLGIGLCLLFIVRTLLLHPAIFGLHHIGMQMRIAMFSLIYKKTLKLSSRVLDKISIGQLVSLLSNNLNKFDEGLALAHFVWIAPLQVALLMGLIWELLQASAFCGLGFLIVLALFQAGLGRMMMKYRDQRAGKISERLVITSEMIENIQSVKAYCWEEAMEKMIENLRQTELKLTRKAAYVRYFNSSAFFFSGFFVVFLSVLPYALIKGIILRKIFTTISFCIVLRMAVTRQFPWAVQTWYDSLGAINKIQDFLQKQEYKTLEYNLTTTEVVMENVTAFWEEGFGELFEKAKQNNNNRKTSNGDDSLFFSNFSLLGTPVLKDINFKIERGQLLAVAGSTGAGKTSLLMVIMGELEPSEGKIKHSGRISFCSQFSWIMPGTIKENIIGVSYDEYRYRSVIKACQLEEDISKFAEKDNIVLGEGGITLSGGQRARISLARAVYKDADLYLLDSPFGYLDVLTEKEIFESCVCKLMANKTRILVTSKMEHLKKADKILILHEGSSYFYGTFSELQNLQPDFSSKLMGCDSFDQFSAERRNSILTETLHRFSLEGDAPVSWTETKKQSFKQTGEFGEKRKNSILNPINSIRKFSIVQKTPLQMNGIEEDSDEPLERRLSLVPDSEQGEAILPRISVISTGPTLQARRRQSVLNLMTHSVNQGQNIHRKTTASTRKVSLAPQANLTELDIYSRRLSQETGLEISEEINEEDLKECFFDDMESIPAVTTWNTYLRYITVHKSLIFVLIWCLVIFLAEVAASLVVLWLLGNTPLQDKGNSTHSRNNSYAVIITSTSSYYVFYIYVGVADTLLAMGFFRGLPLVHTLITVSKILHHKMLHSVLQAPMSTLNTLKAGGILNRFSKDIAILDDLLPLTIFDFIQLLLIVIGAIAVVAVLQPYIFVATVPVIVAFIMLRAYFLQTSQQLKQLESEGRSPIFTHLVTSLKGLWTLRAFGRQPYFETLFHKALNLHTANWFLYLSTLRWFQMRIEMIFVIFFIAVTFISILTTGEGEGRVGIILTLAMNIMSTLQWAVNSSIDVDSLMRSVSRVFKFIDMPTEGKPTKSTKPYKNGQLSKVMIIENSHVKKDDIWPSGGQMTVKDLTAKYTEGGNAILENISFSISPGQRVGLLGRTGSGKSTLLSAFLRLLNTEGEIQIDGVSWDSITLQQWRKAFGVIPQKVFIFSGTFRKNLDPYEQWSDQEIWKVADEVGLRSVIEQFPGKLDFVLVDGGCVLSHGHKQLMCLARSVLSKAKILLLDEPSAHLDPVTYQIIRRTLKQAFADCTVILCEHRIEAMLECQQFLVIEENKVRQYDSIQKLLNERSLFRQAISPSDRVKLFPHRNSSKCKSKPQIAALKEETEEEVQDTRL

For orientation: EC50 means the concentration that produces a half-maximal response. A low value points to a more potent agent. On to `COC(=O)c1cccc([C@H]2C[C@@H](NC(=O)[C@]3(C)CCc4cc(OC)ccc43)c3ccccc3O2)c1` [Example 28, methyl 3-[(2R,4R)-4-{[(1R)-5-methoxy-1-methyl-2,3-dihydro-1H-indene-1-carbonyl]amino}-3,4-dihydro-2H-1-benzopyran-2-yl]benzoate], for which the half-maximal effective concentration (EC50) was 2490 nM and the Maximum % activity is recorded as 21.2%.

For the compound `COC(=O)c1cccc([C@H]2C[C@@H](NC(=O)[C@]3(C)CCc4cc(OC)ccc43)c3ccc(OC)cc3O2)c1` [Example 29, methyl 3-[(2R,4R)-7-methoxy-4-{[(1R)-5-methoxy-1-methyl-2,3-dihydro-1H-indene-1-carbonyl]amino}-3,4-dihydro-2H-1-benzopyran-2-yl]benzoate], the concentration giving a half-maximal response (EC50) turned out to be 1440 nM and the Maximum % activity is given as 37.8%.

Compound `COC(=O)c1cccc([C@H]2C[C@@H](NC(=O)[C@@]3(C)CCc4cc(OC)ccc43)c3ccccc3O2)c1` [Example 30, methyl 3-[(2R,4R)-4-{[(1S)-5-methoxy-1-methyl-2,3-dihydro-1H-indene-1-carbonyl]amino}-3,4-dihydro-2H-1-benzopyran-2-yl]benzoate] gave an EC50 of 960 nM and a Maximum % activity of 48.4%.

In the case of `COC(=O)c1cccc([C@H]2C[C@@H](NC(=O)[C@@]3(C)CCc4cc(OC)ccc43)c3ccc(OC)cc3O2)c1` [Example 31, methyl 3-[(2R,4R)-7-methoxy-4-{[(1S)-5-methoxy-1-methyl-2,3-dihydro-1H-indene-1-carbonyl]amino}-3,4-dihydro-2H-1-benzopyran-2-yl]benzoate], it took 400 nM to reach a half-maximal effect (EC50) and the Maximum % activity turned out to be 63.6%.

With `COc1ccc2c(c1)CC[C@@]2(C)C(=O)N[C@@H]1C[C@H](c2cccc(C(=O)O)c2)Oc2ccccc21` [Example 32, 3-[(2R,4R)-4-{[(1R)-5-methoxy-1-methyl-2,3-dihydro-1H-indene-1-carbonyl]amino}-3,4-dihydro-2H-1-benzopyran-2-yl]benzoic acid], the EC50 was found to be 1210 nM and the Maximum % activity stood at 20.4%.

Regarding `COc1ccc2c(c1)CC[C@@]2(C)C(=O)N[C@@H]1C[C@H](c2cccc(C(=O)O)c2)Oc2cc(OC)ccc21` [Example 33, 3-[(2R,4R)-7-methoxy-4-{[(1R)-5-methoxy-1-methyl-2,3-dihydro-1H-indene-1-carbonyl]amino}-3,4-dihydro-2H-1-benzopyran-2-yl]benzoic acid], the 50% effective concentration (EC50) came out at 270 nM and the Maximum % activity is 25.9%.

Compound `COc1ccc2c(c1)CC[C@]2(C)C(=O)N[C@@H]1C[C@H](c2cccc(C(=O)O)c2)Oc2ccccc21` [Example 34, 3-[(2R,4R)-4-{[(1S)-5-methoxy-1-methyl-2,3-dihydro-1H-indene-1-carbonyl]amino}-3,4-dihydro-2H-1-benzopyran-2-yl]benzoic acid] registered an EC50 of 410 nM and a Maximum % activity of 52.6%.

In turn, `COc1ccc2c(c1)CC[C@]2(C)C(=O)N[C@@H]1C[C@H](c2cccc(C(=O)O)c2)Oc2cc(OC)ccc21` [Example 35, 3-[(2R,4R)-7-methoxy-4-{[(1S)-5-methoxy-1-methyl-2,3-dihydro-1H-indene-1-carbonyl]amino}-3,4-dihydro-2H-1-benzopyran-2-yl]benzoic acid] had an EC50 of 200 nM and a Maximum % activity of 57.5%.

The compound `COc1ccc2c(c1)O[C@@H](c1cccc(C(=O)O)c1)C[C@H]2NC(=O)C1(C)CCc2cc(Cl)ccc21` (stereo partly drawn) [Example 36, 3-{(2R,4R)-4-[(5-chloro-1-methyl-2,3-dihydro-1H-indene-1-carbonyl)amino]-7-methoxy-3,4-dihydro-2H-1-benzopyran-2-yl}benzoic acid] showed a concentration for a half-maximal effect (EC50) of 670 nM and a Maximum % activity of 31.4%.

`COc1ccc2c(c1)O[C@@H](c1cccc(C(=O)O)c1)C[C@H]2NC(=O)C(C)(C)c1ccc(OCC(C)C)cc1` [Example 37, 3-[(2R,4R)-7-methoxy-4-{2-methyl-2-[4-(2-methylpropoxy)phenyl]propanamido}-3,4-dihydro-2H-1-benzopyran-2-yl]benzoic acid] yielded an EC50 above 20000 nM and a Maximum % activity of 6.1%.
